Patent publication US6706663B2, “Herbicidal 3-heterocyclic substituted benzisothiazole and benzisoxazole compounds” (Wyeth, priority 2000, dated 2004)

What was measured:
[1] = test system: ECHCG (Echinochloa crus-galli); assay: Postemergence herbicidal evaluation; type: in vivo, (L.) Beau; conditions: postemergence
How it was run: (§1)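 Seedlings grown for about two weeks were sprayed postemergence and then kept under standard greenhouse care. Injury was rated visually 4–5 weeks after treatment on a 0–9 scale against untreated controls, and ratings from repeat tests were averaged.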

CYPIR (Cyperus iria) = assay: Flooded paddy, preemergence weed control; type: in vivo; conditions: rated 3-4 weeks after treatment, 0-9 rating scale
How it was run: (§2)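 Scoring used a 0-9 visual scale relative to control. Before that, seeds or propagules were planted shallowly in silt loam and flooded to 1.5–3 cm, a depth maintained throughout, with greenhouse care during the test.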

ORYSAT (Rice, Tebonnet) [2] = assay: Flooded paddy, post-transplant rice tolerance; type: in vivo, Oryza sativa, (L.) Tebonnet; conditions: flooded paddy, post-transplant rice, rated 3-4 weeks after treatment, 0-9 rating scale
How it was run: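 Visual 0-9 rating against a control, covering stand, vigor, malformation, size, chlorosis and overall appearance. Treatment was applied after transplanting paired ten-day-old seedlings into flooded silt loam, with water kept 1.5 to 3 cm deep on greenhouse benches.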

[3] = test system: TRZAWR (Wheat, Winter, cv Riband); assay: Postemergence herbicidal evaluation; type: in vivo, Triticum aestivum; conditions: postemergence
How it was run: as §1

[4] = test system: SAGPY (Sagittaria pygmaea); assay: Flooded paddy, preemergence weed control; type: in vivo, L.; conditions: rated 3-4 weeks after treatment, 0-9 rating scale
How it was run: as §2

ZEAMX (Corn, Field) [5] = assay: Preemergence herbicidal evaluation; type: in vivo, Zea mays, L.; conditions: preemergence, rated 4-5 weeks after treatment
[6] = test system: IPOHE (Ipomoea hederacea); assay: Postemergence herbicidal evaluation; type: in vivo, (L.) Jacq.; conditions: postemergence
How it was run: as §1

[7] = test system: ECHORC (Echinochloa oryzoides); assay: Flooded paddy, preemergence weed control; type: in vivo, Echinochloa oryzoides (Ard.) Fritsch.; conditions: rated 3-4 weeks after treatment, 0-9 rating scale
How it was run: as §2

[8] = test system: IPOHE (Ipomoea hederacea); assay: Preemergence herbicidal evaluation; type: in vivo, (L.) Jacq.; conditions: preemergence, rated 4-5 weeks after treatment
[9] = test system: ABUTH (Abutilon theophrasti); assay: Postemergence herbicidal evaluation; type: in vivo, Medic.; conditions: postemergence
How it was run: as §1

[10] = test system: CASOB (Cassia obtusifolia); assay: Postemergence herbicidal evaluation; type: in vivo, L.; conditions: postemergence
How it was run: as §1

[11] = test system: AMBEL (Ambrosia artemisifolia); assay: Postemergence herbicidal evaluation; type: in vivo, L.; conditions: postemergence
How it was run: as §1

[12] = test system: CHEAL (Chenopodium album); assay: Postemergence herbicidal evaluation; type: in vivo, L.; conditions: postemergence
How it was run: as §1

GALAP (Galium aparine) [13] = assay: Preemergence herbicidal evaluation; type: in vivo; conditions: preemergence, rated 4-5 weeks after treatment
How it was run: (§3)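 Each species was sown separately in potting soil over roughly one inch of soil, and the surface sprayed with compound dissolved in aqueous acetone. Assessment used a 0–9 visual scale against a control after four to five weeks.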

[14] = test system: GLXMAW (Soybean, Williams); assay: Postemergence herbicidal evaluation; type: in vivo, Glycine max, (L.) Merr. cv Williams; conditions: postemergence
How it was run: as §1

ZEAMX (Corn, Field) [15] = assay: Postemergence herbicidal evaluation; type: in vivo, Zea mays, L.; conditions: postemergence
How it was run: as §1

[16] = test system: ECHCG (Echinochloa crus-galli); assay: Preemergence herbicidal evaluation; type: in vivo, (L.) Beau; conditions: preemergence, rated 4-5 weeks after treatment
How it was run: as §3

GLXMA (Soybean) = assay: Preemergence herbicidal evaluation; type: in vivo, Glycine max, (L.) Merr.; conditions: preemergence, rated 4-5 weeks after treatment
[17] = test system: MOOVA (Monochoria vaginalis); assay: Flooded paddy, preemergence weed control; type: in vivo, Presl.; conditions: rated 3-4 weeks after treatment, 0-9 rating scale
How it was run: as §2

[18] = test system: ABUTH (Abutilon theophrasti); assay: Preemergence herbicidal evaluation; type: in vivo, Medic.; conditions: preemergence, rated 4-5 weeks after treatment
[19] = test system: AMBEL (Ambrosia artemisifolia); assay: Preemergence herbicidal evaluation; type: in vivo, L.; conditions: preemergence, rated 4-5 weeks after treatment
How it was run: as §3

ORYSAT (Rice, Tebonnet) [20] = assay: Postemergence herbicidal evaluation; type: in vivo, Oryza sativa, (L.) Tebonnet; conditions: postemergence
How it was run: as §1

GALAP (Galium aparine) [21] = assay: Postemergence herbicidal evaluation; type: in vivo; conditions: postemergence
How it was run: as §1

[2-[5-[3,6-dihydro-3-methyl-2,6-dioxo-4-(trifluoromethyl)-1(2H)-pyrimidinyl]-1,2-benzisothiazol-3-1]-1,3-dioxolan-4-yl]methyl thiocyanate [Compound 89]
ECHCG herbicidal rating ([1]; rate 0.0080 kg/ha): 0.0 | ECHCG herbicidal rating ([1]; rate 0.0320 kg/ha): 0.0 | ECHCG herbicidal rating ([1]; rate 0.0620 kg/ha): 3.0 | ECHCG herbicidal rating ([1]; rate 0.1250 kg/ha): 4.0 | CYPIR herbicidal rating (CYPIR (Cyperus iria); rate 0.0320 kg/ha): 0.0 | CYPIR herbicidal rating (CYPIR (Cyperus iria); rate 0.1250 kg/ha): 8.0 | ORYSAT herbicidal rating (transplanted rice tolerance) (ORYSAT (Rice, Tebonnet) [2]; rate 0.0320 kg/ha): 0.0 | ORYSAT herbicidal rating (transplanted rice tolerance) (ORYSAT (Rice, Tebonnet) [2]; rate 0.1250 kg/ha): 6.0 | TRZAWR herbicidal rating ([3]; rate 0.0080 kg/ha): 1.5 | TRZAWR herbicidal rating ([3]; rate 0.0320 kg/ha): 3.0 | TRZAWR herbicidal rating ([3]; rate 0.0620 kg/ha): 3.0 | TRZAWR herbicidal rating ([3]; rate 0.1250 kg/ha): 4.0 | SAGPY herbicidal rating ([4]; rate 0.0320 kg/ha): 0.0 | SAGPY herbicidal rating ([4]; rate 0.1250 kg/ha): 9.0 | Preemergence herbicidal rating ZEAMX (ZEAMX (Corn, Field) [5]; rate 0.0620 kg/ha): 0.0 | Preemergence herbicidal rating ZEAMX (ZEAMX (Corn, Field) [5]; rate 0.1250 kg/ha): 3.0 | Preemergence herbicidal rating ZEAMX (ZEAMX (Corn, Field) [5]; rate 0.2500 kg/ha): 4.0 | IPOHE herbicidal rating ([6]; rate 0.0080 kg/ha): 7.0 | IPOHE herbicidal rating ([6]; rate 0.0320 kg/ha): 9.0 | IPOHE herbicidal rating ([6]; rate 0.0620 kg/ha): 9.0 | IPOHE herbicidal rating ([6]; rate 0.1250 kg/ha): 9.0 | ECHORC herbicidal rating ([7]; rate 0.0320 kg/ha): 3.0 | ECHORC herbicidal rating ([7]; rate 0.1250 kg/ha): 5.0 | Preemergence herbicidal rating IPOHE ([8]; rate 0.0620 kg/ha): 7.0 | Preemergence herbicidal rating IPOHE ([8]; rate 0.1250 kg/ha): 8.0 | Preemergence herbicidal rating IPOHE ([8]; rate 0.2500 kg/ha): 9.0 | ABUTH herbicidal rating ([9]; rate 0.0080 kg/ha): 8.0 | ABUTH herbicidal rating ([9]; rate 0.0320 kg/ha): 9.0 | ABUTH herbicidal rating ([9]; rate 0.0620 kg/ha): 9.0 | ABUTH herbicidal rating ([9]; rate 0.1250 kg/ha): 9.0 | CASOB herbicidal rating ([10]; rate 0.0080 kg/ha): 9.0 | CASOB herbicidal rating ([10]; rate 0.0320 kg/ha): 9.0 | CASOB herbicidal rating ([10]; rate 0.0620 kg/ha): 9.0 | CASOB herbicidal rating ([10]; rate 0.1250 kg/ha): 9.0 | AMBEL herbicidal rating ([11]; rate 0.0080 kg/ha): 7.0 | AMBEL herbicidal rating ([11]; rate 0.0320 kg/ha): 9.0 | AMBEL herbicidal rating ([11]; rate 0.0620 kg/ha): 9.0 | AMBEL herbicidal rating ([11]; rate 0.1250 kg/ha): 9.0 | CHEAL herbicidal rating ([12]; rate 0.0080 kg/ha): 8.0 | CHEAL herbicidal rating ([12]; rate 0.0320 kg/ha): 9.0 | CHEAL herbicidal rating ([12]; rate 0.0620 kg/ha): 9.0 | CHEAL herbicidal rating ([12]; rate 0.1250 kg/ha): 9.0 | Preemergence herbicidal rating GALAP (GALAP (Galium aparine) [13]; rate 0.0620 kg/ha): 3.0 | Preemergence herbicidal rating GALAP (GALAP (Galium aparine) [13]; rate 0.1250 kg/ha): 6.0 | Preemergence herbicidal rating GALAP (GALAP (Galium aparine) [13]; rate 0.2500 kg/ha): 7.0 | GLXMAW herbicidal rating ([14]; rate 0.0080 kg/ha): 7.0 | GLXMAW herbicidal rating ([14]; rate 0.0320 kg/ha): 7.5 | GLXMAW herbicidal rating ([14]; rate 0.0620 kg/ha): 8.0 | GLXMAW herbicidal rating ([14]; rate 0.1250 kg/ha): 9.0 | ZEAMX herbicidal rating (ZEAMX (Corn, Field) [15]; rate 0.0080 kg/ha): 3.0 | ZEAMX herbicidal rating (ZEAMX (Corn, Field) [15]; rate 0.0320 kg/ha): 3.5 | ZEAMX herbicidal rating (ZEAMX (Corn, Field) [15]; rate 0.0620 kg/ha): 3.5 | ZEAMX herbicidal rating (ZEAMX (Corn, Field) [15]; rate 0.1250 kg/ha): 3.5 | Preemergence herbicidal rating ECHCG ([16]; rate 0.0620 kg/ha): 0.0 | Preemergence herbicidal rating ECHCG ([16]; rate 0.1250 kg/ha): 3.0 | Preemergence herbicidal rating ECHCG ([16]; rate 0.2500 kg/ha): 7.0 | Preemergence herbicidal rating GLXMA (GLXMA (Soybean); rate 0.0620 kg/ha): 3.0 | Preemergence herbicidal rating GLXMA (GLXMA (Soybean); rate 0.1250 kg/ha): 6.0 | Preemergence herbicidal rating GLXMA (GLXMA (Soybean); rate 0.2500 kg/ha): 9.0 | MOOVA herbicidal rating ([17]; rate 0.0320 kg/ha): 0.0 | MOOVA herbicidal rating ([17]; rate 0.1250 kg/ha): 8.0 | Preemergence herbicidal rating ABUTH ([18]; rate 0.0620 kg/ha): 9.0 | Preemergence herbicidal rating ABUTH ([18]; rate 0.1250 kg/ha): 9.0 | Preemergence herbicidal rating ABUTH ([18]; rate 0.2500 kg/ha): 9.0 | Preemergence herbicidal rating AMBEL ([19]; rate 0.0620 kg/ha): 4.0 | Preemergence herbicidal rating AMBEL ([19]; rate 0.1250 kg/ha): 9.0 | Preemergence herbicidal rating AMBEL ([19]; rate 0.2500 kg/ha): 9.0 | ORYSAT herbicidal rating (ORYSAT (Rice, Tebonnet) [20]; rate 0.0080 kg/ha): 1.5 | ORYSAT herbicidal rating (ORYSAT (Rice, Tebonnet) [20]; rate 0.0320 kg/ha): 3.0 | ORYSAT herbicidal rating (ORYSAT (Rice, Tebonnet) [20]; rate 0.0620 kg/ha): 3.0 | ORYSAT herbicidal rating (ORYSAT (Rice, Tebonnet) [20]; rate 0.1250 kg/ha): 4.0 | GALAP herbicidal rating (GALAP (Galium aparine) [21]; rate 0.0080 kg/ha): 2.0 | GALAP herbicidal rating (GALAP (Galium aparine) [21]; rate 0.0320 kg/ha): 3.0 | GALAP herbicidal rating (GALAP (Galium aparine) [21]; rate 0.0620 kg/ha): 7.0 | GALAP herbicidal rating (GALAP (Galium aparine) [21]; rate 0.1250 kg/ha): 9.0
